We go through two compounds from US8921424B2, “Histone deacetylase inhibitors, process for preparation and uses thereof” (Zhejiang Hisun Pharmaceutical Co. Ltd., priority 2007, dated 2014).

For this assay, the target named is HDAC6 (Homo sapiens (Human), UniProt Q9UBN7). As to the kind of experiment: In vitro HDACi assay, HDAC6. It counts as biochemical. Here is the method:
In Vitro HDACi Assay for Determination of IC50 Values
The assay has been carried out in white 96 well formats according to the BIOMOL's method. […] The reaction mixture was incubated at room temperature for 2 hours. Flur de lys Developer was added and the reaction was incubated for 10 min. Briefly, deacetylation of the substrate sensitizes to the developer, which then generates a fluorophore. The fluorophore is excited with 360 nm light and the emitted light (460 nm) is detected on a fluorometric plate reader (Molecular Device Ultra Microplate detection system, MD Group Ltd).
The analytical software, Prism 4.0 (GraphPad Software Inc) has been used to generate IC50 from a series of data.

Like-named read-outs stand apart in the source and are kept apart here.

Chain of HDAC6 (Q9UBN7 whole entry, species assumed): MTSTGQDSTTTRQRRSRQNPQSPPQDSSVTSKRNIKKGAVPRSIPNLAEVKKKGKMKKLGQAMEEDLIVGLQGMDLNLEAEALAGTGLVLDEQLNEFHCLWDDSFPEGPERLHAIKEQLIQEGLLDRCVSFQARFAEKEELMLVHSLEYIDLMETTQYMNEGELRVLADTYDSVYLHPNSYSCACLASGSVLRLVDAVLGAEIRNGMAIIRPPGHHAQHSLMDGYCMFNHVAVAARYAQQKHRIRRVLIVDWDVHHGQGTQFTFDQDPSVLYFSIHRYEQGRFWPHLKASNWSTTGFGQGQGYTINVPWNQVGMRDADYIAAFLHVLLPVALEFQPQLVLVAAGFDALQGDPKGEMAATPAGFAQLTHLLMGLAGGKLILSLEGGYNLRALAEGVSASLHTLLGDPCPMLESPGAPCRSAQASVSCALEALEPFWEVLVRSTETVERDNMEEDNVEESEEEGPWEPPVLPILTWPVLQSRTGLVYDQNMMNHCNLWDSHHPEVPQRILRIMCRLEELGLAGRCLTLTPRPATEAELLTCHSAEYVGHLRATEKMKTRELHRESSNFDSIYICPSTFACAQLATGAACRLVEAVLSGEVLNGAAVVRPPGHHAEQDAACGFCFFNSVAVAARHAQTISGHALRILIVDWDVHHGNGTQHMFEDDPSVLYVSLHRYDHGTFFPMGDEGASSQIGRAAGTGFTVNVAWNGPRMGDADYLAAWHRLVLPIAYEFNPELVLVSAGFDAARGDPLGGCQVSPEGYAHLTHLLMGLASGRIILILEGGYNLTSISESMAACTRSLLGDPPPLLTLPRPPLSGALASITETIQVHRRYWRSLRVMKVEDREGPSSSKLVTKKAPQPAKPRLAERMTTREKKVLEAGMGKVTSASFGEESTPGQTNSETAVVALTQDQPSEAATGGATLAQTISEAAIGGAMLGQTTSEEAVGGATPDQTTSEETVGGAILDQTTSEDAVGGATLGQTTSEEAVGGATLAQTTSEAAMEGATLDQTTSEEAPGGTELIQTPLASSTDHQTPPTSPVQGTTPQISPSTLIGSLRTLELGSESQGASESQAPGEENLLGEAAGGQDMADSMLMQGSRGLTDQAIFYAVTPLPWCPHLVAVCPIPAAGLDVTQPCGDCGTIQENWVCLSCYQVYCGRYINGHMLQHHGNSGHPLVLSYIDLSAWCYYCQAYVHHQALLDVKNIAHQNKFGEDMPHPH

For `CCCCCNc1cc(/C=C/C(=O)NO)ccc1SCCN(CC)CC` [Example 2, 3-(4-(2-(diethylamino)ethylthio)-3-(pentylamino)phenyl)-N-hydroxy-acrylamide], the IC50 (Table 3, read-out: IC50 (nM) HDAC6) came to 578 nM.

`CCCCc1nc2cc(/C=C/C(=O)NO)ccc2n1CCN(CC)CC` [SB939, reference compound] returned an IC50 of 488 nM.
